Assay results reported in patent US20170320939A1, “COLL2-1 PEPTIDE AND ITS NITRATED FORM AS THERAPEUTIC TARGETS FOR OSTEOARTHRITIS TREATMENT” (Université de Liège, priority 2014, published 2017).

Assays:
[1] = test system: OA synovial fibroblast cells; assay: Intracellular GSH assay in OA synovial fibroblast cells; type: cell-based, human; details: Coll2-1 at 0.45 and 4.5 nmol, 24 hours
Experimental: 1.1 Patients. Synovial tissue samples were obtained from 10 patients (8 women, 2 man; mean age 70 +/−6 years) with osteoarthritis (OA) of the knee at the time of total knee joint replacement surgery. All the subjects provided their informed consent.
1.2 Isolation and culture of synovial cells. Synovium biopsies were digested is with collagenase from Clostridium histolyticum, Type IA (1 mg/ml) (Sigma-Aldrich, Saint-Louis, USA) and 0.25% trypsin (Sigma Aldrich, Saint Louis, USA) with 0.68 mM EDTA in Tris buffer 0.1M, pH 7.4 in complete medium (CM) (DMEM (Dulbecco's Modified Eagle's Medium) Low Glucose supplemented with 10 mM HEPES, 100 U/ml penicillin, 100 μg/ml streptomycin, 2 mM glutamine and 10% fetal calf serum (Lonza, Verviers, Belgium)) for 1 hour at 37° C. The cells suspensions were passed through a 70-μm filter to remove any undigested tissue. The filtered cells suspensions were then collected by centrifugation at 800 g and were cultured in culture flasks. After 24 hours, medium was changed to eliminate non adherent cells. Synovial fibroblasts cells (SFC) were used after three passages. […]
1.6 GSH assay. Levels of intracellular GSH were assessed by monoclorobimane staining. […] The fluorescence intensities were measured at […] using excitation and emission wavelengths of 380 and 485 nm, respectively. The intracellular GSH level was expressed as arbitrary units of fluorescence intensity.

female Lewis rats = assay: In-vivo study, S.C. injection compared to CIA (collagen induced arthritis) model; details: for arthritis visual score, difference versus saline (Group 7): D17
Experimental: An in-vivo study was performed to evaluate the potential immunizing effect of Coll2-1 peptide. This effect was evaluated in comparison with two validated models of rheumatoid arthritis: CIA (Collagen induced arthritis) and SCW (Streptococcal cell walls). The peptide has been injected once subcutaneous, at the base of the tail (S.C.—evaluation of systemic inflammation) or intra-articular (I.A.—evaluation of mono-articular inflammation) in female Lewis rats. Naïve controls (saline) were considered. Animals were euthanized 21 or 28 days after injection.
All animals (n=108 females; 96.0-129.7 gr) included in the study were identified by a unique chip. They were randomly distributed into 8 study groups (n=16/group except nave controls n=6/group, n=8/each time point) before induction (DO) based on their body weight (FIG. 1). • Injected controls (2 groups) • Group 1: bovin type II collagen (CIA)—S.C. (n=16) • Group 2: streptococcal cell wail (SCW)—I.A. (n=16) • Test groups (4 groups) • Group 3: Peptide dose 200 μg/100 μl—S.C. (n=16) • Group 4: Peptide dose 20 μg/100 μl—S.C. (n=16) • Group 5: Peptide dose 5 μg/50 μl—I.A. (n=16) • Group 6: Peptide dose 0.5 μg/50 μl—I.A. (n=16) • Naïve controls (2 groups) • Group 7: saline S.C. (n=6) • Group 8: saline I.A. (n=6)
Two injection ways were chosen to evaluate the potential effect of the peptide: intra-articular (I.A.) and subcutaneous (S.C.), two route classically used in the art.
Coll2-1 peptide was administered either I.A. under a 50 μL volume into the right knee or S.C. under a 100 μL volume at the base of the tail.
SCW was administered I.A. into the right knee under a 50 μL volume. Bovine type II collagen (CIA) was administered under 100 μL volume at the base of the tail.
Two doses of the Coll2-1 peptide were tested in both conditions.
It was administered S.C. at 200 and 20 μg under 100 μL.
Coll2-1 peptide was administered once (DO).
Joint was considered arthritic when significant signs of redness and/or swelling was noted. Each paw was evaluated with a visual score (0-3) • 0: normal, no joint inflammation • 1: large joint inflammation • 2: medium joint inflammation • 3: small joint (distal) inflammation
A set of 4 values were recorded on each evaluation day. The 4 values were summed for analysis.
Right and left knees diameter were measured using a digital caliper.
Animals were euthanized 21 or 28 days after injection (D0). They were anesthetized with a subcutaneous injection of a Ketamin/Medetomidine mix and further euthanized by exsanguination.
Both entire knees from each animal were processed for histological analysis, They were decalcified in a HCl/EDTA mix (DC2, Qpath, VWR Belgium) for the appropriate time before inclusion in paraffin. Three frontal sections (5 μm) of each compartment were done 200 μm apart in the weight bearing zone using a microtome. Slides were stained according to a standard Safranin-O/Fast green protocol.
Slides were evaluated under a light microscope. Each slide was score for: • Infiltration of inflammatory cells in synovial tissue (0-3) • Inflammatory cells in the joint cavity (exudate) (0-3) • Cartilage proteoglycan depletion (0-3) • Loss of articular cartilage (0-3) • Bone erosion (0-3).
Infiltration of inflammatory cells in synovial tissue and inflammatory cells in the joint cavity were considered together (sum of the scores) as inflammatory parameters for the analysis of the detailed criteria.
Statistical analysis was performed with the appropriate test using GraphPad. • Visual score and evaluations (knee diameter measurements) were analyzed with a two way ANOVA followed, if positive, by Tukey's multiple comparison test. Graphs represented the mean of each group at each evaluated time point. • Histological scores were analyzed with a Kruskal Wallis for non-parametric values followed, if positive, by a Dunn's multiple comparison test. Graphs presented as box and whisker plots. Exact p values were provided and asterisks representation were also performed.

## HRGYPGLDG [Coll2-1]
[1]
  intracellular level of GSH: significant decrease
Female Lewis rats; Coll2-1 20 μg S.C. (Gr4), 028
  inflammatory criteria (histology): Significant increase
Female Lewis rats; Coll2-1 20 μg S.C. (Gr4), D28
  cartilage degradation criteria: Significant increase
  loss of matrix proteoglycan: Significant increase
  subchondral bone modification score: Significant increase
Female Lewis rats; Coll2-1 20 μg S.C. (Group 4), D21
  arthritis visual score, difference versus bovine type II collagen (Group 1): statistically different
Female Lewis rats; Coll2-1 20 μg S.C. (Group 4), D28
  global histological score, right and left knees together, versus saline (Group 7): significant increase
Female Lewis rats; Coll2-1 20 μg/100 μl S.C. (Group 4)
  arthritis visual score, difference versus saline (Group 7): statistically significant
Female Lewis rats; Coll2-1 200 μg S.C. (Gr3), D21
  inflammatory criteria (histology): Significant increase
  subchondral bone modification score: Significant increase
Female Lewis rats; Coll2-1 200 μg S.C. (Gr3), D28
  cartilage degradation criteria: Significant increase
  loss of matrix proteoglycan: Significant increase
Female Lewis rats; Coll2-1 200 μg S.C. (Group 3), D21
  global histological score, right and left knees together, versus saline (Group 7): significant increase
Female Lewis rats; Coll2-1 200 μg/100 μl S.C. (Group 3)
  arthritis visual score, difference versus saline (Group 7): statistically significant
Female Lewis rats; collagen arthritis model, S.C. injection
  histological score (conclusion): increase
Female Lewis rats; single S.C. injection at the base of the tail, four limbs, D0 to D28
  arthritis visual score: induced an increase
